The record followed here is patent US8592456B2 (4SC Discovery GmbH, priority 2011, dated 2013).

Read-outs that look alike come from different tables or passages of the source.

Holding throughout (type): cell-based
Test [1] relates to IL-17FF. Description: IL-17FF production by PHA-stimulated human PBMC (IL-17F ELISA). The method, then:
(§1) Analysis of Proliferation of and Cytokine Production by Human PBMC Stimulated with PHA
(§2) Peripheral blood mononuclear cells (PBMC) from healthy human donors were purified using Accuspin™ System-Histopaque-1077 (Sigma) according to the protocol recommended by the manufacturer. Purified PBMC were then washed twice with phosphate-buffered saline (PBS) and resuspended in RPMI1640 culture medium supplemented with 10% dialyzed heat inactivated fetal calf serum, 1.5 mM L-glutamine, 100 U penicillin/ml, and […] (all from PAN Biotech, Aidenbach, Germany). For stimulation, PBMC were seeded at 1×10^5 cells/well, activated with 2 μg/ml phytohaemagglutinin (PHA, Sigma) and incubated with the test compounds for 48 hours. IL-17A, IL-17F and INF-γ were then determined in the culture supernatant using a Luminex BioPlex system, following the manufacturer's instructions (BioRad, Munich, Germany). For screening, compounds were used at 10, 1, 0.1 and 0.01 μM. To determine the IC50, compounds were titrated semilogarithmically.
(§3) Cytokines were determined in the aforementioned culture supernatant using the following methods: IL-17AA/AF was measured using the Luminex BioPlex system (BioRad, Munich, Germany); IL-17AA using the human homodimer IL-17A ELISA Ready Set Go Kit from eBioscience (Frankfurt, Germany); IL-17FF using the human IL-17F ELI-Pair from Hölzel DiagnosticaGmBH (Köln, Germany); and IFN-γ using the OptElA human IFN-g ELISA from BD Bioscience (Heidelberg, Germany), all following the manufacturer's instructions.
In general terms: ELISA stands for enzyme-linked immunosorbent assay.

In test [2] the test system is IFNγ. Briefly: IFN-γ production by PHA-stimulated human PBMC (IFN-g ELISA). The following applies: 48 h. As to the method: as §1
as §2, with “For stimulation, PBMC were seeded at 1×10^5 cells/well, activated with 2 μg/ml phytohaemagglutinin (PHA, Sigma) and incubated with the test compounds for 48 hours.” left out, “For screening, compounds were used at 10, 1, 0.1 and 0.01 μM. To determine the IC50, compounds were titrated semilogarithmically.” left out
as §3

Test [3] has as its system PBMC (T cell proliferation). Briefly: T cell proliferation assay, PHA-stimulated human PBMC (BrdU ELISA). The note with it: Homo sapiens, 48 h. The procedure, abridged:
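Healthy-donor human PBMC, Ficoll-isolated, seeded 1×10^5 cells/well in RPMI1640 with 10% dialyzed FCS, stimulated with 2 μg/ml PHA alongside test compound. Proliferation read after 48 hours by BrdU ELISA.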
In general terms: Dividing cells build labelled thymidine or BrdU into new DNA.

With `O=C(O)c1c(-c2c(F)cccc2Cl)noc1-c1cnn(-c2cccc(Cl)c2)c1C(F)(F)F` [Example B-18, 3-(2-chloro-6-fluorophenyl)-5-(1-(3-chlorophenyl)-5-(trifluoromethyl)-1H-pyrazol-4-yl)isoxazole-4-carboxylic acid], in test [1] (human PBMC, 2 μg/ml PHA, 48 hours, read-out: B: IC50 (IL-17FF)), the IC50 was in the range of 1 to 10 µM.

Consider `CCOC(=O)c1c(-c2c(F)cccc2Cl)noc1-c1cnn(-c2ccccc2Cl)c1C(F)(F)F` [Example B-33, ethyl 3-(2-chloro-6-fluorophenyl)-5-(1-(2-chlorophenyl)-5-(trifluoromethyl)-1H-pyrazol-4-yl)isoxazole-4-carboxylate], for which the IC50 was 0.1 to 1 µM in test [1] (Homo sapiens, PBMC, 48 h, read-out: B: IC50 (IL-17FF)); 0.1 to 1 µM in test [2] (read-out: C: IC50 (IFNγ)); 0.1 to 1 µM in test [3] (read-out: D: IC50 (Tcell proliferation)).

For the compound `Cc1csc(-c2c(-c3c(F)cccc3Cl)noc2-c2cnn(-c3cccc(Cl)c3)c2C(F)(F)F)n1` [Example I-4], the IC50 in test [1] (Homo sapiens, PBMC, 48 h, read-out: IC50 (IL-17FF)) was less than 0.01 µM; in test [2] (read-out: IC50 (IFNγ)), less than 0.01 µM; in test [3] (read-out: IC50 (Tcell proliferation)), less than 0.01 µM.
